Source: US20080220528A1, “HIV GENE CLONING STRATEGY” (SCHERING CORPORATION, priority 2006, published 2008)
pIC50: −log10 of the molar value.

Key:
[1] = test system: RU570-VCV virus; assay: Viral replication assay in PBL (p24 ELISA), vicriviroc-passaged culture; format: cell-based, HIV-1
Description: The Hut 78 derived PM-1 (Lusso, P., et al (1995). J Virol 69(6), 3712-20) T-cell line was infected with a parental PBL stock of HIV-1 RU570 for one week prior to the initiation of vicriviroc selection starting at 0.1 nM. PM-1 cell cultures were passaged weekly by transferring 1 ml of cell culture supernatant and one tenth of the infected cells into fresh PM-1 cultures (1-2×10^6) in the absence (passage control culture, RU570-PC) or presence (RU570-VCV) of vicriviroc. Culture supernatants were subsequently used to re-infect fresh PM-1 cells weekly. Viral supernatants and infected cells were collected periodically for p24 antigen titers, vicriviroc sensitivity testing in PBL described below in the viral replication assay section, and sequence analysis. […] To select for minor populations of highly resistant variants that may have emerged, the concentration of vicriviroc was escalated to 10 μM at week 36 and cultures were maintained in 10 μM vicriviroc until viral replication remained consistent. By approximately week 56, VCV-treated cultures were replicating to similar levels compared to the passage control cultures and maintained consistently robust growth up to 93 weeks when cultures were terminated.
IL-2/PHA-stimulated PBL were seeded into 96-well plates (200,000 cells/well) pretreated with an equal volume of medium plus vicriviroc or medium only at 37° C. for 1 hour. The plates were centrifuged at 300 g for 10 min and the media aspirated and replaced with 20 μl of fresh medium with or without compound. The cells were then infected in triplicate using 20 μl of viral supernatant (RU570) from 3 hr to overnight at 37° C. The cells were washed twice with PBS to remove residual viral inoculums and cultured in the presence or absence of vicriviroc for 4-6 days. Viral replication was assessed by measuring p24 antigen production by ELISA. The IC50 and IC90 values for vicriviroc susceptibility with these viruses was determined by analyzing dose-response curves using a 4-parameter logistic curve fit model with Prism GraphPad Software Version 4.0 (San Diego, Calif.).

[2] = test system: RU570 passage control virus (RU570-PC); assay: Viral replication assay in PBL (p24 ELISA), passage control culture; format: cell-based, HIV-1; conditions: through 93 weeks of cell culture
Description: The Hut 78 derived PM-1 (Lusso, P., et al (1995). J Virol 69(6), 3712-20) T-cell line was infected with a parental PBL stock of HIV-1 RU570 for one week prior to the initiation of vicriviroc selection starting at 0.1 nM. PM-1 cell cultures were passaged weekly by transferring 1 ml of cell culture supernatant and one tenth of the infected cells into fresh PM-1 cultures (1-2×10^6) in the absence (passage control culture, RU570-PC) or presence (RU570-VCV) of vicriviroc. Culture supernatants were subsequently used to re-infect fresh PM-1 cells weekly. Viral supernatants and infected cells were collected periodically for p24 antigen titers, vicriviroc sensitivity testing in PBL described below in the viral replication assay section, and sequence analysis. […]
IL-2/PHA-stimulated PBL were seeded into 96-well plates (200,000 cells/well) pretreated with an equal volume of medium plus vicriviroc or medium only at 37° C. for 1 hour. […] Viral replication was assessed by measuring p24 antigen production by ELISA. The IC50 and IC90 values for vicriviroc susceptibility with these viruses was determined by analyzing dose-response curves using a 4-parameter logistic curve fit model with Prism GraphPad Software Version 4.0 (San Diego, Calif.).

[3] = test system: HIV-1 particles pseudotyped with ADA gp160; assay: Single-cycle HIV-1 pseudovirus luciferase assay in U87-CD4-CCR5 cells; format: cell-based
Description: (§1) HIV-1 pseudoviruses were produced in 293T cells by calcium phosphate transfection of pNL4-3E^−Luc^+ and HIV-1 envelope expression vectors using ProFection® Mammalian Transfection system (Promega Corp., Madison, Wis.). HIV-1 pseudovirus was harvested in culture supernatants 48 hrs post-transfection and supernatants were clarified of cell debris by centrifugation at 1500 g for 10 min. Single-cycle infection assays were generally performed on the same day HIV-1 pseudovirus was harvested. To assess susceptibility to CCR5 co-receptor antagonists, 5,000 U87-CD4-CCR5 cells/well were seeded into 96-well luminometer plates (Perkin Elmer) and plates were incubated overnight at 37° C. The next day serial 10-fold dilutions of inhibitor in cell culture medium (10 μM→1.0 μM) were added to wells one hour prior to the addition of HIV-1 pseudovirus plus inhibitor. Plates were incubated for 72 hours, and luciferase activity was analyzed by adding 50 μl of BrightGlo™ luciferase assay buffer and plates were read on a Dynex luminometer (300 mSec/well). Relative light units (RLU) were normalized to virus dose, measured as ng p24, and percent inhibition, was calculated as follows: 100−[average normalized RLU for HIV-1 pseudovirus plus drug/average normalized RLU for HIV-1 pseudovirus from control wells without drug]×100. Dose-response data was analyzed using a non-linear regression 4-parameter logistic curve fit program with Prism GraphPad Software Version 4.0 (San Diego, Calif.).

[4] = test system: HIV-1 particles pseudotyped with RU570-PC gp160 envelope; assay: as above; format: cell-based
Description: as §1

[5] = test system: HIV-1 particles pseudotyped with VCVres chimeric RU570-PC envelopes (RU570-PC-C2-C3res, -C2-V4res, -C2-V5res); assay: as above; format: cell-based
Description: as §1

[6] = test system: pseudoviruses with ADA-C2-V5res chimeric envelope; assay: as above; format: cell-based
Description: (§2) Homologous recombination of the V2-C5 gp120 fragment from RU570-PC gp120 clone #16 and RU570-VCVres gp120 clone #8 was performed following restriction endonuclease digestion of constructs with MfeI and gel purification of the 838 bp V2-C5 gp120 fragments (HXB2 gp120 nucleotides 533-1431; gp120 at position 185-478). The pSV7d-ADA gp160 expression vector was digested with BglII and BstZ17I restriction endonucleases, alkaline phosphatase treated and the 5.1 kb vector was gel purified on 1% agarose. A 50:1 ratio of V2-C5res gp120 fragment to vector was used to transform chemically-competent BJ5183 E. coli, and individual colonies were screened by PCR for successful recombination.
as §1

[7] = test system: pseudoviruses with ADA-V3res chimeric envelope; assay: as above; format: cell-based
Description: as §2, §1

[8] = test system: pseudovirus with RU570-PC-C2-V5res chimeric envelope; assay: Single-cycle HIV-1 pseudovirus assay, effect of viral inoculum; format: cell-based; conditions: very high inoculum, 90 ng p24
Description: as §1, with “The next day serial 10-fold dilutions of inhibitor in cell culture medium (10 μM→1.0 μM) were added to wells one hour prior to the addition of HIV-1 pseudovirus plus inhibitor.” left out

[9] = test system: NL4-3-AD8 virus; assay: Vicriviroc susceptibility assay with replication competent virus in U87-CD4-CCR5 cells; format: cell-based, HIV-1; conditions: Human immunodeficiency virus 1, NL43, multi-cycle infection
From the text: (§3) The pNL4-3-AD8 molecular clone was modified by deleting 650 bp of cDNA sequence flanking the 5′LTR, thereby creating a unique Stu I site within gp120. The ADA-V3res and ADA-C2-V5res chimeric envelopes were digested with StuI and AleI restriction endonucleases and the 1.2 kb env fragments corresponding to at 203-608 (HXB2 gp160 aa coordinates) were gel purified on 1% agarose. These fragments were cloned directly into pNL4-3-AD8 digested with the same restriction endonucleases and all constructs were verified by DNA sequence analysis.
(§4) 293T cells were transfected with pNL4-3-AD8, pNL4-3-AD8-C2-V5res, and pNL4-3-AD8-V3res molecular clones using Superfect transfection reagent (Qiagen Corp., Vencia, Calif.) and HIV-1 virus was harvested in supernatants 48 hr post transfection.
(§5) CCR5 inhibitor resistance was previously reported to be influenced by the assay format in which resistance is evaluated (Pugach, P., et al (2007). Virology 361(1), 212-28). […] In order to evaluate differences in susceptibility profiles between single-cycle and multi-cycle infection assays in U87-CD4-CCR5 cells, we generated replication competent viruses expressing the chimeric gp120 envelopes. Restriction fragments corresponding to HXB2 aa 203-608 within ADA-V3res and ADA-C2-V5res chimeric envelopes were transferred to an NL4-3-AD8 HIV-1 molecular clone by unique restriction-site digestion and relegation. […]

[10] = test system: NL4-3-AD8-V3res virus; assay: as above; format: cell-based, HIV-1; conditions: Human immunodeficiency virus 1, NL43, multi-cycle infection
From the text: as §3, §4, §5

[11] = test system: replication competent HIV-1 virus containing the ADA-C2-V5res chimeric envelope sequence (NL4-3-AD8-C2-V5res); assay: as above; format: cell-based; conditions: multi-cycle infection
From the text: as §3, §4, §5

[12] = Human immunodeficiency virus 1, U87/CD4/CCR5

Question: COC[C@@H](c1ccc(C(F)(F)F)cc1)N1CCN(C2(C)CCN(C(=O)c3c(C)ncnc3C)CC2)C[C@@H]1C [vicriviroc, Vicriviroc] was tested. Which pIC50 ([1]; Human immunodeficiency virus 1, RU570-VCV culture until week 45, PBL) did it give?
Answer: Its pIC50 is greater than 7.30.

Question: What about the maximum percent inhibition ([1]; RU570-VCV culture until week 45, PBL) of the same molecule?
Answer: The maximum percent inhibition was 100%.

Question: And the maximal percent inhibition ([1]; RU570-VCV culture week 45, PBL)?
Answer: Its maximal percent inhibition is “approximately 76%”.

Question: And the maximal percent inhibition ([1]; RU570-VCV culture week 47, PBL)?
Answer: Its maximal percent inhibition is roughly 45%.

Question: And the maximum percent inhibition ([1]; RU570-VCV culture week 93, PBL, flat dose-response curve)?
Answer: Its maximum percent inhibition is “approximately 30%”.

Question: And the susceptibility to vicriviroc [2]?
Answer: The susceptibility to vicriviroc was “remained susceptible”.

Question: What about the pIC50 [3, 12] of the same molecule?
Answer: The pIC50 was 10.40.

Question: And the Emax ([3]; Human immunodeficiency virus 1, U87/CD4/CCR5, read-out: maximum response, percent inhibition)?
Answer: The Emax was 100%.

Question: And the MI values ([3]; parental ADA gp160, regardless of the virus concentration (data not shown))?
Answer: Its MI values is 100%.

Question: And the pIC50 [4, 12]?
Answer: The pIC50 was 10.00.

Question: What about the MI values ([4]; RU570-PC 160 construct, regardless of the virus concentration (data not shown)) of the same molecule?
Answer: The MI values was 100%.

Question: What about the maximum inhibition ([4]; {}) of the same molecule?
Answer: The maximum inhibition was 100%.

Question: What about the pIC50 [5, 12] of the same molecule?
Answer: Its pIC50 is 9.70 to 10.15.

Question: What about the inhibition at 0.1 µM ([5]; Human immunodeficiency virus 1, U87/CD4/CCR5, read-out: maximum inhibition levels) of the same molecule?
Answer: Its inhibition at 0.1 µM is 100%.

Question: What about the “maximum inhibition (MI), plateau level” value ([6]; 2 ng p24 inoculum) of the same molecule?
Answer: The value was “approximately 80%”.

Question: And the “susceptibility to vicriviroc (phenotype)” value ([6]; ADA-C2-V5res pseudovirus, U87-CD4-CCR5 cells)?
Answer: Its value is “resistant phenotype”.

Question: What about the “maximum inhibition (MI), plateau level” value ([6]; high virus inocula, 70 ng p24) of the same molecule?
Answer: The value was “approximately 55%”.

Question: What about the susceptibility to vicriviroc [7] of the same molecule?
Answer: The susceptibility to vicriviroc was “completely susceptible”.

Question: And the maximum inhibition [8]?
Answer: Its maximum inhibition is 100%.

Question: What about the pIC50 [9] of the same molecule?
Answer: Its pIC50 is 10.60.

Question: And the pIC50 [10]?
Answer: Its pIC50 is 10.60.

Question: What about the “MI (maximum inhibition)” value [11] of the same molecule?
Answer: The value was “approximately 50%”.
